Experimental findings from PMC7571145, “Multistep Synthesis and In Vitro Anticancer Evaluation of 2-Pyrazolyl-Estradiol Derivatives, Pyrazolocoumarin-Estradiol Hybrids and Analogous Compounds” (Molecules, 2020) are described below.

One data set relates to HeLa cells. Nature of the data set: MTT cytotoxicity assay on HeLa cells. It is filed as cell-based. To be noted: for primary growth inhibitory screen, cell viability, HeLa: 2.5 µM, mean±SD, untreated control about 100; for IC50: mean ± SD. How it is done:
(§1) Cytotoxicity screens were performed to assess the in vitro anticancer activity of the synthesized A-ring-linked 2-pyrazoles of estradiol, the pyrazolocoumarin-estradiol hybrids, and their structurally simplified non-steroidal analogs on various cancerous cell lines such as MCF-7, PC-3, DU145, and HeLa and on non-cancerous MRC-5 fibroblasts. The 2-acetyl-phenol starting materials (4, 5, and 15) were also included for comparison. All compounds were applied in 2.5 µM concentration for 72 h. The obtained cell viability data were used to construct a heat map (Figure 2) in order to select compounds that exert cancer cell line-specific cytotoxicity. […] Furthermore, some compounds discriminated only DU145 cells and could eliminate these type of prostate cancer cells.
(§2) To understand structure-function relationships, we also included the structural analogs of the selected compounds, namely 7a (C-17 acetate of 8a), 8c (C-17 OH counterpart of 7c), and 9a (steroidal pair of 19a) into subsequent analyses. […] For this, compounds were applied on MCF-7, PC-3, DU145, and HeLa and on non-cancerous MRC-5 fibroblasts in various concentrations for 72 h or were treated with cisplatin at different concentrations. On the viability data, dose–response curves were fitted (Figure S1) and IC50 values were calculated accordingly (Table 3). In agreement with the primary cytotoxicity screen (Table S1), the obtained IC50 concentrations clearly indicated which compound was selectively effective on one or more cancer cell lines. […] Typically, acetylated steroidal pyrazoles were less favorable than deacetylated counterparts due to reduced cancer cell selectivity (7c, 10a).
(§3) To evaluate the in vitro pharmacological effects of the synthesized molecules, each compound was first dissolved in cell culture grade DMSO (Sigma) to a final concentration of 10 mM. Using MTT colorimetric assay, the cytotoxicity of these compounds was evaluated on cancerous (MCF-7, HeLa, DU145, PC-3) and non-cancerous (MRC-5) cell lines. Briefly, 5000 cells/well of each cell line were seeded in 96-well plates and were left to grow overnight in a 5% CO2 atmosphere at 37 °C. On the next day, cells were treated with each derivative separately, in case of the primary screen, or only with the selected compounds upon IC50 determination. Cells were incubated with the test compounds for 72 h in a 5% CO2 atmosphere at 37 °C. End point was measured by incubating cells for 1 h with 0.5 mg/mL of MTT reagent (Serva) dissolved in serum free culture medium. The formazan crystals formed by metabolically active cells were later dissolved in DMSO. Optical density of the obtained solutions was measured at 570 nm using a Synergy HTX plate reader. […] The analysis and conclusions were made based on three independent experiments. Normalized data were analyzed and the heat map was constructed using GraphPad Prism 7 software.

For the next data set, the system named is MCF-7 cells. The data set is described as follows: MTT cytotoxicity assay on MCF-7 cells. To be noted: for primary growth inhibitory screen, cell viability, MCF-7: 2.5 µM, 72 h, mean±SD, untreated control about 100; for IC50: mean ± SD. The data set is classed as cell-based. How it is done: as §1, §2, §3
A general note: Formazan colour is commonly taken as a measure of viable cells.

The subject of the next data set is MRC-5 fibroblasts. Nature of the data set: MTT cytotoxicity assay on non-cancerous MRC-5 fibroblasts. Particulars: for primary growth inhibitory screen, cell viability, MRC-5 / IC50: MTT; for primary growth inhibitory screen, cell viability, MRC-5: mean±SD, untreated control about 100; for IC50: mean ± SD. It is filed as cell-based. How it is done: as §1, §2, §3

Another data set deals with PC-3 cells. The data set is described as follows: MTT cytotoxicity assay on PC-3 prostate cancer cells. The data set is classed as cell-based. To be noted: for primary growth inhibitory screen, cell viability, PC-3: 2.5 µM, 72 h, mean±SD, untreated control about 100; for IC50: mean ± SD. As to the method: as §1, §2, §3
The next data set has as its system DU145 cells. Nature of the data set: MTT cytotoxicity assay on DU145 prostate cancer cells. It is filed as cell-based. To be noted: for primary growth inhibitory screen, cell viability, DU145: 2.5 µM, 72 h, mean±SD, untreated control about 100; for IC50: mean ± SD. As to the method: as §1, §2, §3

Read-outs that look alike come from different tables or passages of the source. A value given as a limit tells only on which side of the number the result lay.

For the compound `CC(=O)O[C@H]1CC[C@H]2[C@@H]3CCc4cc(O)c(-c5nn(-c6ccccc6)cc5CO)cc4[C@H]3CC[C@]12C` [Compound 10a], the melting point was in the range of 257 to 259 °C. Besides, in the data set on HeLa cells (72 h), the “primary growth inhibitory screen, cell viability, HeLa” value stood at 83.2±2.0. Moreover, the “primary growth inhibitory screen, cell viability, MCF-7” value with MCF-7 cells was 73.5±7.2. The “primary growth inhibitory screen, cell viability, MRC-5” value in the data set on MRC-5 fibroblasts (2.5 µM, 72 h) worked out at 93.6±1.7. Moreover, in the data set on PC-3 cells, the “primary growth inhibitory screen, cell viability, PC-3” value turned out to be 63.6±17.8. Besides, the “primary growth inhibitory screen, cell viability, DU145” value in the data set with DU145 cells is recorded as at least 100±15.8.
Compound `CC(=O)O[C@H]1CC[C@H]2[C@@H]3CCc4cc(O)c(-c5nn(-c6ccc(C)cc6)cc5C=O)cc4[C@H]3CC[C@]12C` [Compound 7b, 2-(4′-Formyl-1′-(4″-tolyl)-1′H-pyrazol-3′-yl)-estra-1,3,5(10)-triene-3,17β-diol-17-acetate] had a melting point of 229 to 231 °C. The “primary growth inhibitory screen, cell viability, HeLa” value with HeLa cells (72 h) worked out at 100.1±2.1. In addition, in the data set on MCF-7 cells, the “primary growth inhibitory screen, cell viability, MCF-7” value was at least 100±4.3. Besides, in the data set on MRC-5 fibroblasts (2.5 µM, 72 h), the “primary growth inhibitory screen, cell viability, MRC-5” value was found to be 100.4±5.1. Also, in the data set on PC-3 cells, the “primary growth inhibitory screen, cell viability, PC-3” value turned out to be 98.2±6.5. Further, the “primary growth inhibitory screen, cell viability, DU145” value in the data set on DU145 cells was determined as 98.7±15.6.
`Cc1ccc(-n2cc(C=O)c(-c3cc4c(cc3O)CC[C@@H]3[C@@H]4CC[C@]4(C)[C@@H](O)CC[C@@H]34)n2)cc1` [Compound 8b, 2-(4′-Formyl-1′-(4″-tolyl)-1′H-pyrazol-3′-yl)-estra-1,3,5(10)-trien-3,17β-diol]: the melting point was > 190 °C (dec.). In addition, in the data set with HeLa cells (72 h), the “primary growth inhibitory screen, cell viability, HeLa” value is given as 92.2±8.5. For the same compound, the “primary growth inhibitory screen, cell viability, MCF-7” value in the data set on MCF-7 cells is recorded as at least 100±8.2. Further, the “primary growth inhibitory screen, cell viability, MRC-5” value in the data set with MRC-5 fibroblasts (2.5 µM, 72 h) is given as at least 100±2.4. In the data set with PC-3 cells, the “primary growth inhibitory screen, cell viability, PC-3” value is recorded as 67.8±3.8. In the data set on DU145 cells, the “primary growth inhibitory screen, cell viability, DU145” value was at least 100±10.2.
Turning to `O=c1oc2cc3c(cc2c2nn(-c4ccc(Cl)cc4)cc12)CCCC3` [Compound 19c, 2-(4′-Chlorophenyl)-7,8,9,10-tetrahydrobenzo[6,7]chromeno[4,3-c]pyrazol-4(2H)-one], the melting point was in the range of 291 to 293 °C. For the same compound, in the data set with HeLa cells (72 h), the “primary growth inhibitory screen, cell viability, HeLa” value is recorded as at least 100±8.3. Also, in the data set on MCF-7 cells, the “primary growth inhibitory screen, cell viability, MCF-7” value is recorded as at least 100±3.8. For the same compound, the “primary growth inhibitory screen, cell viability, MRC-5” value with MRC-5 fibroblasts (2.5 µM, 72 h) is recorded as at least 100±2.5. Further, in the data set on PC-3 cells, the “primary growth inhibitory screen, cell viability, PC-3” value was 79.1±7.8. For the same compound, the “primary growth inhibitory screen, cell viability, DU145” value with DU145 cells is reported as at least 100.6±10.8.
As to `O=c1oc2cc3c(cc2c2nn(-c4ccccc4)cc12)CCCC3` [Compound 19a, 2-Phenyl-7,8,9,10-tetrahydrobenzo[6,7]chromeno[4,3-c]pyrazol-4(2H)-one], the melting point lay within 221 to 223 °C. Also, the “primary growth inhibitory screen, cell viability, HeLa” value in the data set on HeLa cells (72 h) was at least 100±8.7. Further, the IC50 in the data set on HeLa cells (Homo sapiens, HeLa, 72 h, compounds 1-7 µM, read-out: IC50 on HeLa) was over 7 µM. For the same compound, in the data set with MCF-7 cells, the “primary growth inhibitory screen, cell viability, MCF-7” value is reported as at least 100±3.9. In the data set with MCF-7 cells (Homo sapiens, MCF7, 72 h, compounds 1-7 µM, read-out: IC50 on MCF-7), the concentration for half-maximal inhibition (IC50) was 6.83 ± 1.1 µM. Besides, the “primary growth inhibitory screen, cell viability, MRC-5” value in the data set with MRC-5 fibroblasts (2.5 µM, 72 h) was at least 100±3.0. Further, in the data set with MRC-5 fibroblasts (2.5 µM, 72 h, based on the heat map), the “effect on non-cancerous fibroblasts” value is on record as “no or very mild effect”. The IC50 in the data set on MRC-5 fibroblasts (Homo sapiens, MRC5, 72 h, compounds 1-7 µM, read-out: IC50 on MRC-5) was over 7 µM. Further, the “primary growth inhibitory screen, cell viability, PC-3” value in the data set on PC-3 cells is 95.4±1.3. Moreover, in the data set with PC-3 cells (Homo sapiens, PC-3, 72 h, compounds 1-7 µM, read-out: IC50 on PC-3), the IC50 stood at 4.7 ± 1 µM. Further, the “primary growth inhibitory screen, cell viability, DU145” value in the data set with DU145 cells was 21.6±0.5. Besides, the IC50 with DU145 cells (Homo sapiens, DU-145, 72 h, compounds 1-7 µM, read-out: IC50 on DU145) came to 1.41 ± 1.1 µM.
Turning to `N.N.[Cl][Pt][Cl]` [cisplatin, reference compound], the IC50 in the data set on HeLa cells (cisplatin applied for 24 h, 20-330 µM, read-out: IC50 on HeLa (positive control)) was 297.1 ± 1.02 µM; in the data set with MCF-7 cells (cisplatin applied for 24 h, 20-330 µM, read-out: IC50 on MCF-7 (positive control)), over 330 µM; with MRC-5 fibroblasts (cisplatin applied for 24 h, 20-330 µM, read-out: IC50 on MRC-5 (positive control)), 34.3 ± 1.02 µM; in the data set with PC-3 cells (cisplatin applied for 24 h, 20-330 µM, read-out: IC50 on PC-3 (positive control)), over 330 µM; with DU145 cells (cisplatin applied for 24 h, 20-330 µM, read-out: IC50 on DU145 (positive control)), 116.1 ± 1.06 µM.

What is called melting point is the temperature of the solid-liquid transition. Broadly, the IC50 is the concentration that inhibits the measured activity by half.
